Organism: Rattus norvegicus
Assay: Open TG-GATES - Regimen: Single
Assay type: toxicity, organism-based, Sprague-Dawley
Parameters: regimen Single, gender Male, age 6 weeks
Conditions: in vivo, po, 600 mg/kg, route gavage, dose level Middle; for APTT / Bas / Eos / Fbg / Hb / Ht / Lym / MCH / MCHC / MCV / Mono / Neu / PT / Plat / RBC / Ret / WBC: tissue Blood; for KIDNEY_L / KIDNEY_R / KIDNEY_TOTAL: tissue Kidney; for LIVER: tissue Liver; for A/G / ALP / ALT / AST / BUN / CRE / Ca / Cl / DBIL / GLC / IP / K / LDH / Na / PL / RALB / TBIL / TC / TG / TP / gamma-GTP: tissue Plasma

Compound: NNC(=O)c1ccncc1 [ISONIAZID]
- TERMINAL_BW (3 h): 221.5 g
- APTT (3 h): 19.8 s
- Bas (3 h): 0%
- Eos (3 h): 1%
- Fbg (3 h): 231 mg/dL
- Hb (3 h): 13.7 g/dL
- Ht (3 h): 37.8%
- Lym (3 h): 72.6%
- MCH (3 h): 22 pg
- MCHC (3 h): 36.2%
- MCV (3 h): 60.8 fL
- Mono (3 h): 2.4%
- Neu (3 h): 23.2%
- PT (3 h): 12.2 s
- Plat (3 h): 125.7 x10_4/uL
- RBC (3 h): 622.4 x10_4/ul
- Ret (3 h): 7.4%
- WBC (3 h): 67.3 x10_2/uL
- KIDNEY_L (3 h): 0.9 g
- KIDNEY_R (3 h): 0.9 g
- KIDNEY_TOTAL (3 h): 1.9 g
- LIVER (3 h): 9.6 g
- A/G (3 h): 1.7
- ALP (3 h): 950 IU/L
- ALT (3 h): 39.6 IU/L
- AST (3 h): 73.6 IU/L
- BUN (3 h): 9 mg/dL
- CRE (3 h): 0.4 mg/dL
- Ca (3 h): 10.3 mg/dL
- Cl (3 h): 104 meq/L
- DBIL (3 h): 0.064 mg/dL
- GLC (3 h): 197.6 mg/dL
- IP (3 h): 10 mg/dL
- K (3 h): 3.7 meq/L
- LDH (3 h): 177.2 IU/L
- Na (3 h): 141.4 meq/L
- PL (3 h): 134.8 mg/dL
- RALB (3 h): 3.6 g/dL
- TBIL (3 h): 0.1 mg/dL
- TC (3 h): 78.2 mg/dL
- TG (3 h): 49.6 mg/dL
- TP (3 h): 5.7 g/dL
- gamma-GTP (3 h): 1 IU/L
- TERMINAL_BW (6 h): 219.2 g
- APTT (6 h): 18.4 s
- Bas (6 h): 0%
- Eos (6 h): 0.8%
- Fbg (6 h): 223.4 mg/dL
- Hb (6 h): 13.6 g/dL
- Ht (6 h): 37.9%
- Lym (6 h): 78.8%
- MCH (6 h): 22 pg
- MCHC (6 h): 36%
- MCV (6 h): 61.3 fL
- Mono (6 h): 1.8%
- Neu (6 h): 17.6%
- PT (6 h): 12.2 s
- Plat (6 h): 133.3 x10_4/uL
- RBC (6 h): 619 x10_4/ul
- Ret (6 h): 7.6%
- WBC (6 h): 75.7 x10_2/uL
- KIDNEY_L (6 h): 1 g
- KIDNEY_R (6 h): 1 g
- KIDNEY_TOTAL (6 h): 1.9 g
- LIVER (6 h): 9.6 g
- A/G (6 h): 1.6
- ALP (6 h): 838.6 IU/L
- ALT (6 h): 27.6 IU/L
- AST (6 h): 52.2 IU/L
- BUN (6 h): 9.4 mg/dL
- CRE (6 h): 0.4 mg/dL
- Ca (6 h): 10.3 mg/dL
- Cl (6 h): 104.6 meq/L
- DBIL (6 h): 0.066 mg/dL
- GLC (6 h): 210 mg/dL
- IP (6 h): 9.3 mg/dL
- K (6 h): 3.6 meq/L
- LDH (6 h): 202.8 IU/L
- Na (6 h): 142.8 meq/L
- PL (6 h): 142.2 mg/dL
- RALB (6 h): 3.5 g/dL
- TBIL (6 h): 0.1 mg/dL
- TC (6 h): 71 mg/dL
- TG (6 h): 90.4 mg/dL
- TP (6 h): 5.8 g/dL
- gamma-GTP (6 h): 1 IU/L
- TERMINAL_BW (9 h): 219.9 g
- APTT (9 h): 17.5 s
- Bas (9 h): 0%
- Eos (9 h): 0.8%
- Fbg (9 h): 222.8 mg/dL
- Hb (9 h): 13.5 g/dL
- Ht (9 h): 37.4%
- Lym (9 h): 70.6%
- MCH (9 h): 21.9 pg
- MCHC (9 h): 36.1%
- MCV (9 h): 60.6 fL
- Mono (9 h): 1.6%
- Neu (9 h): 26%
- PT (9 h): 12.3 s
- Plat (9 h): 116 x10_4/uL
- RBC (9 h): 616.6 x10_4/ul
- Ret (9 h): 7.1%
- WBC (9 h): 71.5 x10_2/uL
- KIDNEY_L (9 h): 1 g
- KIDNEY_R (9 h): 1 g
- KIDNEY_TOTAL (9 h): 2 g
- LIVER (9 h): 8.8 g
- A/G (9 h): 1.5
- ALP (9 h): 752.2 IU/L
- ALT (9 h): 23.2 IU/L
- AST (9 h): 44.6 IU/L
- BUN (9 h): 7.8 mg/dL
- CRE (9 h): 0.4 mg/dL
- Ca (9 h): 10.3 mg/dL
- Cl (9 h): 105 meq/L
- DBIL (9 h): 0.066 mg/dL
- GLC (9 h): 200.6 mg/dL
- IP (9 h): 9 mg/dL
- K (9 h): 3.8 meq/L
- LDH (9 h): 203.6 IU/L
- Na (9 h): 142.6 meq/L
- PL (9 h): 152.8 mg/dL
- RALB (9 h): 3.4 g/dL
- TBIL (9 h): 0.1 mg/dL
- TC (9 h): 78.2 mg/dL
- TG (9 h): 74.6 mg/dL
- TP (9 h): 5.7 g/dL
- gamma-GTP (9 h): 1 IU/L
- TERMINAL_BW (24 h): 215.6 g
- APTT (24 h): 19.7 s
- Bas (24 h): 0.4%
- Eos (24 h): 0.8%
- Fbg (24 h): 218.6 mg/dL
- Hb (24 h): 14.5 g/dL
- Ht (24 h): 39.6%
- Lym (24 h): 86.4%
- MCH (24 h): 22.4 pg
- MCHC (24 h): 36.7%
- MCV (24 h): 61 fL
- Mono (24 h): 2.4%
- Neu (24 h): 8.8%
- PT (24 h): 12.9 s
- Plat (24 h): 139.5 x10_4/uL
- RBC (24 h): 649.2 x10_4/ul
- Ret (24 h): 3.7%
- WBC (24 h): 85.9 x10_2/uL
- KIDNEY_L (24 h): 1 g
- KIDNEY_R (24 h): 1 g
- KIDNEY_TOTAL (24 h): 2.1 g
- LIVER (24 h): 9.8 g
- A/G (24 h): 1.7
- ALP (24 h): 817.6 IU/L
- ALT (24 h): 15.2 IU/L
- AST (24 h): 32.2 IU/L
- BUN (24 h): 17.8 mg/dL
- CRE (24 h): 0.4 mg/dL
- Ca (24 h): 10.6 mg/dL
- Cl (24 h): 104.4 meq/L
- DBIL (24 h): 0.06 mg/dL
- GLC (24 h): 189.2 mg/dL
- IP (24 h): 8.9 mg/dL
- K (24 h): 3.9 meq/L
- LDH (24 h): 202.4 IU/L
- Na (24 h): 143.4 meq/L
- PL (24 h): 123.2 mg/dL
- RALB (24 h): 3.6 g/dL
- TBIL (24 h): 0.1 mg/dL
- TC (24 h): 58.6 mg/dL
- TG (24 h): 69.6 mg/dL
- TP (24 h): 5.7 g/dL
- gamma-GTP (24 h): 1 IU/L
